Experimental findings from publication PMC8398766, “Do Small Molecules Activate the TrkB Receptor in the Same Manner as BDNF? Limitations of Published TrkB Low Molecular Agonists and Screening for Novel TrkB Orthosteric Agonists” (Pharmaceuticals, 2021) are described below.

This series is described as follows: in vivo. It counts as in vivo, BALB/c mice. The note with it: mouse, in vivo. As to the method:
The animals were obtained from the Center of Experimental Medicine (University of Bialystok, Bialystok, Poland) and housed under standard laboratory conditions. Mice had unlimited access to water and food. All the procedures were conducted according to the guidelines of the local ethical commission (appl no. 06/2019, perm. no 10/2019). […] Four animals per time point were sacrificed at 10 min, 30 min, 1 h, 2 h, and 4 h after per os administration and 5 min, 10 min, 30 min, 1 h, and 2 h after i.v. administration. The blood (0.5 mL) was collected by heart puncture using probes with anticoagulants (K2EDTA). Plasma samples were obtained by blood centrifugation (15 min, 3000× g at 23 °C). The whole brain was dissected from the skull and washed with cold 0.9% NaCl on ice. The left hemisphere was quickly frozen in liquid nitrogen and stored at −80 °C for further bioanalytical analysis. From the right hemisphere, the hippocampus and frontal cortex were isolated, weighed, and stored at −80 °C after freezing in liquid nitrogen. Isolated structures were homogenized in N-PER cocktail (10 μL for every 1 mg of tissue) using a hand homogenizer, and then processed as described in Section 4.3.3.
For bioanalytical evaluation, brain samples were homogenized in water (3 mL for every 1 g of brain tissue). Plasma and brain samples were then prepared by precipitating proteins and extracting analytes using acetonitrile with the addition of the internal standard: 150 μL of extraction solution was added to 50 μL of biological material, mixed for 1 min and centrifuged (12,900 RPM, 4 min, 4 °C), and the supernatant was collected for analysis. Standard solutions including calibration standards and quality control samples were prepared by spiking 45 μL of biological material with 5 μL of standard working solution, adding 150 μL of extraction solution, and then mixing, centrifuging, and collecting the supernatant for analysis. The concentrations of analytes in the plasma and brain samples were determined using a UPLC-MS/MS instrument (Agilent Technologies) and chromatographic columns (Agilent Zorbax Eclipse 50 × 2.1 mm; 1.7 μm).

With “7-hydroxy-8-methoxyflavone (7H8M-flavone) and 8-hydroxy-7-methoxyflavone (8H7M-flavone) [7H8M-flavone 8H7M-flavone]”, the “C brain, individual mice” value is “< LLQ” (50 mg/kg) and “< LLQ” (iv, 1 mg/kg). Also, the “C plasma, individual mice” value (iv, 1 mg/kg) is on record as “< LLQ”. Further, the “Time of maximal plasma concentration” value is on record as 5 min (iv, 1 mg/kg) and 10 min (po, 50 mg/kg).
